Among the data in PubChem BioAssay AID463074 (Broad Institute, 2010) are AC50 values, retold here.

Broadly, the AC50 is the concentration giving half of the maximal activity seen.

Values joined by “and” are separate entries in the source; they are usually repeats but may differ in a detail not shown here. Equal values may be shown once. Active and inactive are the calls of the source.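 How the source made its calls: active means AC50 no more than tenfold above the top dose tested, or full inhibition at every dose with a flat fit (cut at about 19 µM in these data); inconclusive means flat curve fit with inhibition between 30% and 70%, or poor fit; inactive means AC50 more than tenfold above the top dose tested.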 Bounds are passed on as bounds.

The subject of the test is HMLE_sh_eGFP viability, CellTiter-Glo luminescence, 72 h. Kind of test: cytotoxicity in HMLE control line with eGFP shRNA, dose response, counter-screen for HMLE_sh_ECad selective toxicity project, cell-based, HMLE_sh_eGFP, luminescence (AID 463074).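 Further: counterscreen control line to flag general toxicity for the HMLE_sh_ECad screen; potency for loss of viability as luminescence drops below DMSO wells.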
In the case of `COc1ccc2c(c1)CCc1c(C(=O)N3CC4(C)CC3CC(C)(C)C4)noc1-2` (configuration not stated), the AC50 is less than 0.16 µM.

Consider `O=C(Nc1cccc(C(F)(F)F)c1)Nc1ccc(N2CCCC2)c(S(=O)(=O)Nc2ccccc2Cl)c1`, for which the AC50 was 1.33 µM. The result for `COc1cc(-c2ccc3oc(-c4cccc(C)c4)c(C#CC4(O)CCCCC4)c3c2)cc(OC)c1OC` reads 15.4 µM; that for `Cc1ccc(C(=O)C(C(=O)/C=C/c2ccccc2)=C2SCCCS2)cc1`, 1.56 µM; that for `O=C1C=C(c2ccc(F)cc2OCc2ccccc2)C[C@@H](c2ccc(F)cc2)C1`, 2.25 µM. `CCn1c2ccccc2c2cc(NC(=O)c3cccc([N+](=O)[O-])c3)ccc21`: the AC50 was 3.63 µM.

Turning to `Cc1[nH]c2ccccc2c1/C=N/NC(=O)C1CC1(c1ccccc1)c1ccccc1` (configuration not stated), the AC50 was 6.08 µM. In the case of `O=C1Nc2ccc(Cl)cc2[C@@](C#CC2CC2)(C(F)(F)F)O1`, the AC50 was 7.55 µM.

`OCCCNc1cc(-c2ccccc2)nc2cc(-c3ccc(F)cc3)nn12`: the AC50 is 9.12 µM.

Regarding `COc1cccc(N2CCN(Cc3nc4scc(-c5ccccc5)c4c(=O)[nH]3)CC2)c1`, the AC50 is 2.59 µM. The same measure for `COc1ccc(C(=O)c2ccc(OC)cc2OC)cc1`: 5.49 µM; for `C[C@@H]1CC=C[C@H]2[C@H]1C(=O)N(Cc1ccccc1)[C@H]2c1ccc2ccccc2c1`: 6.67 µM; for `Cc1ccc(C(=O)N/N=C\c2ccc(-c3ccc(Cl)c(Cl)c3)o2)cn1`: 5.54 µM. `COc1cc(C(=O)N/N=C(\Cc2ncc[nH]2)c2ccccc2)cc(OC)c1OC`: the AC50 is 6.39 µM. The result for `Oc1ccc(C[C@@H]2CNC(=S)N2CCCCC2CCCCC2)cc1` reads 6.13 µM; that for `NC(=O)CC(NC(=O)Cc1ccc(Br)cc1)c1ccc(NC2CC3CCC2C3)c([N+](=O)[O-])c1` (configuration not stated), 6.74 µM; that for `CC(=O)Nc1ccc(SC[C@H](C)CN2CC[C@H](C(C)(C)C)CCC2=O)cc1`, 4.98 µM. Take `Cc1cc(C)nc(NC(=O)c2ccc(COc3ccccc3Cl)cc2)c1`: the AC50 was 0.401 µM. The same measure for `O=c1cc(NS(=O)(=O)c2ccccc2)nc(SCc2ccc(Cl)cc2)[nH]1`: 5.9 µM; for `COc1cc2c(cc1NC(=O)CN(C)Cc1cccc(OC)c1OC)oc1ccccc12`: 3.56 µM; for `O=C(Nc1ccc(Nc2ccccc2)cc1)c1ccccc1`: 13.5 µM. For the molecule `COc1ccc(N/N=C/c2c(O)n(-c3ccc(C)c(C)c3)c(=O)[nH]c2=O)cc1`, the concentration at half-maximal activity (AC50) was 1.12 µM. `O=S(=O)(c1ccccc1)N(CC(O)Cn1c2ccccc2c2ccccc21)c1ccccc1` (configuration not stated): the AC50 is 6.55 µM. Turning to `COc1ccc(Oc2c(Cl)cnn(-c3ccc(Cl)c(Cl)c3)c2=O)cc1`, the AC50 was 3.44 µM. In the case of `Cc1ccc(/C=C\c2nccc3c2[nH]c2ccccc23)cc1`, the AC50 is 13.2 µM. The result for `Cc1cc(N2CCN(C)CC2)nc2ccc(NC(=S)NCCC(C)C)cc12` reads 7.91 µM. The same measure for `Fc1cccc(-n2c(-c3cccs3)nc3nc4ccccc4nc32)c1`: 2.32 µM; for `COc1cc(N=Nc2ccc3ccccc3c2)ccc1O`: 6.43 µM; for `Cc1cc(C)nc(NC(=O)/C=C/c2cccs2)c1`: > 19.5 µM (inactive). The same measure for `CCC(C)Sc1cccc(-c2nc3cc(C)ccn3c2NCc2ccccc2)c1` (configuration not stated): 4.89 µM; for `N#C/C(=C/c1ccc(O)c(O)c1)C(=O)NCc1ccc(Cl)cc1`: 13.7 µM.

For the molecule `CCN(CC)S(=O)(=O)c1ccc(NC(=O)Nc2cccc(C(F)(F)F)c2)cc1`, the AC50 was 3.54 µM. The result for `Clc1ccccc1Cn1c(/C=C/c2ccco2)nc2ccccc21` reads 2.19 µM. Take `Cc1cccn2c(/C=N/OCc3cccc(F)c3)c(-c3ccc(Cl)cc3)nc12`: the AC50 was 10.5 µM. As for `CCCCCCSc1cc(-c2nc3cc(C)ccn3c2NCCCC)ccc1OC`, the AC50 was 8.88 µM. As to `c1ccc(-c2c3ccccc3nc3[nH]c4ccccc4c23)cc1`, the AC50 is 2.95 µM. As to `Cc1ccc(S(=O)(=O)Nc2ccc3c(c2)CC(=O)N([C@H](C)CO)C[C@@H](C)[C@H](CN(C)Cc2ccc(-c4ccccc4)cc2)O3)cc1`, the AC50 was 2.29 µM. The same measure for `Cc1ccccc1OCC(O)Cn1c2ccccc2c2ccccc21` (configuration not stated): 6.78 µM. The result for `Cc1ccn2c(NC3CCCCC3)c(-c3cccc(SC4CCCCC4)c3)nc2c1` reads 3.86 µM; that for `Cc1[nH]n(-c2ncc(-c3ccc(Cl)cc3)s2)c(=O)c1C(c1ccc(Cl)cc1)C(C#N)C#N` (configuration not stated), 3.86 µM; that for `COc1nc(N2CCCCCC2)nc(N2CCCCCC2)n1`, 7.43 µM. As to `CC(C)c1ccc2c(c1)c(SC(C)(C)C)c(CC(C)(C)C(=O)O)n2Cc1ccc(Cl)cc1`, the AC50 was 2 µM. Take `COc1ccccc1-c1oc2ccccc2c1C#CC1(N)CCCCC1`: the AC50 was 6.39 µM. With `CCCCCCCCOC(=O)c1c(CSC(=N)N)n(C)c2cc(Br)c(OC(C)=O)cc12`, the AC50 is 3.72 µM.

With `COc1ccc(NC(=O)c2nc[nH]c2C(=O)N[C@@H](CC(C)C)C(=O)OC(C)(C)C)cc1`, the AC50 is 8.85 µM.

Turning to `CC1(C)CC[C@]2(CO)CC[C@]3(C)C(=CCC4[C@@]5(C)CC[C@H](O)[C@@](C)(CO)C5CC[C@]43C)[C@@H]2C1` (some centres not stated), the AC50 was 3.97 µM. In the case of `CCOC(=O)c1c(C)oc2c(F)c(F)c(F)c(F)c2c1=O`, the AC50 was 2.02 µM. As for `O=C(CN1CCCc2ccccc21)N/N=C/c1c(O)ccc2ccccc12`, the AC50 was 2.7 µM. The same measure for `CCn1cc(C(=O)N[C@H](C)c2ccccc2)c(=O)c2cc(F)c(N3CCN(C)CC3)cc21`: 3.5 µM; for `COc1ccc(NS(=O)(=O)c2ccc(O)c(NC(=O)c3cc4c(C)nn(-c5ccc(F)cc5)c4s3)c2)cc1`: 2.49 µM. In the case of `COc1cccc(C2C3=C(N=c4s/c(=C\c5cccc(O)c5)c(=O)n42)c2ccccc2CC3)c1OC` (configuration not stated), the AC50 was 8.57 µM. Turning to `FC(F)(F)c1cc(CCN2CCNC[C@H]2Cc2cccc3ccccc23)cc(C(F)(F)F)c1`, the AC50 was 3.53 µM.

With `O=C(NNC(=O)c1cc(-c2ccc(Cl)c(Cl)c2)nc2ccccc12)Nc1ccccc1`, the AC50 was 6.4 µM. The result for `CCC(O)(CC)C(=O)N/N=C/c1cc(Br)cc(Br)c1O` reads 19.8 µM; that for `COc1ccc(-c2nn(-c3ccccc3)cc2C(=O)N(C)CC(=O)Nc2cccc(F)c2)cc1`, 15 µM; that for `COc1cc(-c2noc(C)c2/C=C/c2ccc(OC(C)=O)cc2)cc(OC)c1OC`, 0.292 µM. The result for `COc1cccc(-c2cc(=O)c3cc(NC(=O)c4ccc(N(C)C)cc4)ccc3[nH]2)c1` reads 0.559 µM; that for `Cc1nc(-c2ccccc2)sc1C(=O)/C=C/c1ccc(Cl)cc1`, 7.62 µM; that for `O=C(NNC1=C(C(=O)C(F)(F)F)CCC1)c1ccc(Cl)cc1`, 4.25 µM. The result for `CCN(CC)CCOc1ccc(/C(=C(/Cl)c2ccccc2)c2ccccc2)cc1` reads 0.992 µM and 2.55 µM; that for `NC(=O)CC(NC(=O)Cc1ccc(Br)cc1)c1ccc(NCc2cc(F)ccc2F)c([N+](=O)[O-])c1` (configuration not stated), 3.36 µM. On to `COc1ccc(-c2cc(C(=O)N3CC4(C)CC3CC(C)(C)C4)no2)cc1` (configuration not stated), for which the AC50 is 1.43 µM. As to `O=C(Nc1ccc(S(=O)(=O)N2CCOCC2)cc1)c1ccc([N+](=O)[O-])o1`, the AC50 was 5.38 µM. The same measure for `Clc1ccc2c(N/N=C/c3cccc(Br)c3)ccnc2c1`: 4.06 µM; for `N#Cc1c(/N=C/N2CCCC2)oc(-c2ccccc2)c1-c1ccccc1`: 3.02 µM.

For `CCN1CCN(CCCNC(=O)c2ccc(/C=C3/Sc4ccccc4N(Cc4ccccc4F)C3=O)cc2)CC1`, the AC50 is 3.14 µM. As for `OC1CCN(c2cc(-c3ccccc3)nc3cc(-c4ccc(F)cc4)nn23)CC1`, the AC50 is 7.31 µM. The result for `CCCCCCc1cc2cc(C(=O)Nc3ccccc3)c(=O)oc2cc1O` reads 2.01 µM.

Consider `Cc1ccc(F)c([C@H]2C3C=CCC(c4ccccc4)C3C(=O)N2Cc2ccccc2)c1` (some centres not stated), for which the AC50 is 6.52 µM.

With `O=C(Nc1cnn(C23CC4CC(CC(C4)C2)C3)c1)c1cc(-c2ccccc2)on1`, the AC50 is 11.4 µM.

Take `Cc1nc2ccc(Br)cn2c1C(=O)N/N=C\c1ccc(C(C)C)cc1`: the AC50 is 4.34 µM. As for `COc1cccc(C(=O)Nc2ccc(C3CC3(Cl)Cl)cc2)c1` (configuration not stated), the AC50 is 16.4 µM. The result for `C(=N\Nc1ncnc2sc3c(c12)CCC3)/c1cccs1` reads 7.4 µM. Take `COc1ccccc1CNC(=S)Nc1ccc2nc(N3CCN(C)CC3)cc(C)c2c1`: the AC50 was 0.427 µM.

Turning to `COc1cc2ccccc2cc1C(=O)Nc1ccccc1Cl`, the AC50 was 7.94 µM. The result for `O=S(=O)(Nc1ccc(-n2cccc2)cc1)c1ccc(Cl)c(Cl)c1` reads 5.21 µM; that for `CC/C(=N\Nc1ccccc1)c1c(O)n(-c2ccccc2)c(=O)[nH]c1=O`, 2.16 µM; that for `Cc1cc([N+](=O)[O-])nn1CC(=O)N/N=C/c1ccc(O)cc1O`, 5.4 µM. With `CC(C)(Oc1ccc(Cl)cc1)C(=O)NC1=NN(c2ccccc2)C(=O)C1`, the AC50 is 6.11 µM. In the case of `COc1ccc(-c2oc3c4c(cc(OC)c3c(=O)c2CC=C(C)C)OC(C)(C)C=C4)c(OC)c1`, the AC50 was 7.18 µM. The result for `CC(NCc1ccc(OCc2ccc(Cl)cc2)cc1)C(O)c1ccccc1` (configuration not stated) reads 3.57 µM; that for `CCOC(=O)C1=C(C)NC(C)=C(C(=O)OCC)C1c1ccccc1/C=C/C(=O)OC(C)(C)C`, 4.67 µM. The same measure for `CC(C)(C)[C@@H]1CCC(=O)N(CC[C@H](Sc2ccccc2)c2ccccc2)CC1`: 3.95 µM; for `CC/C(=C\C1CCCCC1)C(NP(=O)(c1ccccc1)c1ccccc1)c1ccccc1` (configuration not stated): 3.49 µM. In the case of `CCOC(=O)C(C(=O)OCC)C(Nc1ccc(Br)cc1)c1ccccc1` (configuration not stated), the AC50 is 19.8 µM. Turning to `CCCC(C)c1nnc(NC(=O)COc2ccc3c(c2)OCO3)s1` (configuration not stated), the AC50 is 9.04 µM. The result for `CSc1nc2sc3c(c2c(=O)n1CC(C)C)CC(C)(C)OC3` reads less than 0.16 µM. The same measure for `Cc1ccccc1/C=N/Nc1ccnc2cc(Cl)ccc12`: 4.44 µM; for `CCOC(=O)C(=O)NNc1ccc(Cl)cc1`: 1.37 µM. The result for `CCc1ccc(Nc2nc(N)nc(CSc3nc4ccccc4s3)n2)cc1` reads > 19.5 µM (inactive); that for `CC1=C(/C=C/C(C)=C/C=C/C(C)=C/C(=O)Nc2ccc(O)cc2)C(C)(C)CCC1`, 2.26 µM. In the case of `O=C1C(C2=NC(c3ccccn3)C3C(=O)N(c4ccc(Cl)cc4Cl)C(=O)C23)=C(O)c2ccccc21` (configuration not stated), the AC50 is > 19.5 µM (inactive).
